In ChEMBL document CHEMBL3991601, “The target landscape of clinical kinase drugs” (Science, 2017):
pKd: −log10 of the molar value. The source made the active and inactive calls. For most assays here, no stated cut-off is given here; in the data, actives have a measured Kd and inactives only a lower limit.

Tests used:
[1] = molecular target: Dual specificity protein kinase CLK1 (Homo sapiens, UniProt P49759)
[2] = molecular target: T1, Interleukin-1 receptor-associated kinase 4 (Homo sapiens, UniProt Q9NWZ3)
T1 sequence (Q9NWZ3 whole entry): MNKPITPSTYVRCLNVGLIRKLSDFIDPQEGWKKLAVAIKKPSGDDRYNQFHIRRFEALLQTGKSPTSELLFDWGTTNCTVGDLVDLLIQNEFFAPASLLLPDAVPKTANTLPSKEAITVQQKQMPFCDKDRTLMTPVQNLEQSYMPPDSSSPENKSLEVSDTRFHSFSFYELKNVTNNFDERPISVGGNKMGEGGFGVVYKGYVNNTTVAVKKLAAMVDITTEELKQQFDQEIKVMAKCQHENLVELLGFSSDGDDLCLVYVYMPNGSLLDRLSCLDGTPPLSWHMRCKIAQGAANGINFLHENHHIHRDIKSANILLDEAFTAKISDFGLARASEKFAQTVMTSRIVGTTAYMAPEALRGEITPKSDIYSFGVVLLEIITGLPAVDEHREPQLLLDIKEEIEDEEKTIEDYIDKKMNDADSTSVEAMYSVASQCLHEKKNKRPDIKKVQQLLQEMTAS

[3] = molecular target: T2, Serine/threonine-protein kinase ICK (Homo sapiens, UniProt Q9UPZ9)
T2 sequence (Q9UPZ9 whole entry): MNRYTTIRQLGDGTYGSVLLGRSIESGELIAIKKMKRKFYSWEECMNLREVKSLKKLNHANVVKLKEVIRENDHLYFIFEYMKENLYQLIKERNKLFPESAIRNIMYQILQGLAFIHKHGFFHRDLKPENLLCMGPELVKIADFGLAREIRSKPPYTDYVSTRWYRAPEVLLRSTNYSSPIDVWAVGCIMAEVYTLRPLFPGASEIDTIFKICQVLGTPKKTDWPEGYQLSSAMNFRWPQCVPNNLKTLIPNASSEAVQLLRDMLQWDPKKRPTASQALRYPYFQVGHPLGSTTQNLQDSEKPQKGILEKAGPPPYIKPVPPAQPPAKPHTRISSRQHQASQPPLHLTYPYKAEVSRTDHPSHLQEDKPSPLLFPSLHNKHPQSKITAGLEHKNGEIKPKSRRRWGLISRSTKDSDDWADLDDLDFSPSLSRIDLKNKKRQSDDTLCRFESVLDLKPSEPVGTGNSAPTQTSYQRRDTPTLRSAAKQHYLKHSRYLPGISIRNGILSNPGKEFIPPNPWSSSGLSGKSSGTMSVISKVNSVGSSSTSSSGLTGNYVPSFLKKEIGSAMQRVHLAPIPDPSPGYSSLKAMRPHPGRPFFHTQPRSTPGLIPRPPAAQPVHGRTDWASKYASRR

[4] = molecular target: Adenylate kinase 2, mitochondrial (Homo sapiens, UniProt P54819)
[5] = molecular target: T3, Serine/threonine-protein kinase Nek3 (Homo sapiens, UniProt P51956)
T3 sequence (P51956 whole entry): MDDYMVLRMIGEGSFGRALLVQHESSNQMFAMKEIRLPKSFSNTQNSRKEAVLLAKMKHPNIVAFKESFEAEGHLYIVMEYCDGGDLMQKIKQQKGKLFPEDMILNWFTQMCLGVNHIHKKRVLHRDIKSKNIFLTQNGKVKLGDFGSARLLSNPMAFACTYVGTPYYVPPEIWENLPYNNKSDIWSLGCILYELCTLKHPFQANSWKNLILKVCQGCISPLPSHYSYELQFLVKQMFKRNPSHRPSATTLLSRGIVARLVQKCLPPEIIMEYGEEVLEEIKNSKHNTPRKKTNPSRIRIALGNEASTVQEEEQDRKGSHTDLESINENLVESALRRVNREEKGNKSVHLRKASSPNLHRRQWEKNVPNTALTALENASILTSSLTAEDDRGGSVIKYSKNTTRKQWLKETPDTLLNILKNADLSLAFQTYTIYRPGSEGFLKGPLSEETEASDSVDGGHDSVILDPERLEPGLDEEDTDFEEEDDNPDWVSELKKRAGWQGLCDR

[6] = molecular target: Casein kinase II subunit alpha' (Homo sapiens, UniProt P19784)
[7] = molecular target: Insulin-like growth factor 1 receptor (Homo sapiens, UniProt P08069)
Heme oxygenase 2 = molecular target: T4, Heme oxygenase 2 (Homo sapiens, UniProt P30519)
T4 sequence (P30519 whole entry): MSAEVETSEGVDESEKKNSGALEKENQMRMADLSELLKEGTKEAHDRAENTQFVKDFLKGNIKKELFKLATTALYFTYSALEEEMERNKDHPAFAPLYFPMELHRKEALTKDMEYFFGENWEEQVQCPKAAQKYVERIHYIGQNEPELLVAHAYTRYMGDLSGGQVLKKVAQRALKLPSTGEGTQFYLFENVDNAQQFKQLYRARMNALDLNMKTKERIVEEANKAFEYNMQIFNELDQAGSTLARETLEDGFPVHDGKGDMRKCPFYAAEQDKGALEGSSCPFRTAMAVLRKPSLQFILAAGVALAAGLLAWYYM

Dual specificity protein kinase CLK1, sequence (P49759 whole entry): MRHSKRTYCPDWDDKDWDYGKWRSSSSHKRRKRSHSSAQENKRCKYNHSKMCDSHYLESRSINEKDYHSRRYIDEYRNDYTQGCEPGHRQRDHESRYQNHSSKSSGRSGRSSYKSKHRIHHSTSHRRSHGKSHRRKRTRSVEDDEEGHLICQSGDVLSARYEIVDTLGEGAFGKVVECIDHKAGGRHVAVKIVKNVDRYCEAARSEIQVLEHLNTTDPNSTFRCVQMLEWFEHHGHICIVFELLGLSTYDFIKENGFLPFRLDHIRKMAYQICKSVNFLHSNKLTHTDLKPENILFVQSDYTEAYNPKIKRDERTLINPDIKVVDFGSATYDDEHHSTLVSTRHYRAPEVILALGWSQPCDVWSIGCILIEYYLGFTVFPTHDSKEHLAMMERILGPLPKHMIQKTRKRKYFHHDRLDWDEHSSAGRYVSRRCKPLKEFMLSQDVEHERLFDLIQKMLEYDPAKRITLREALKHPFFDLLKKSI
Casein kinase II subunit alpha', sequence (P19784 whole entry): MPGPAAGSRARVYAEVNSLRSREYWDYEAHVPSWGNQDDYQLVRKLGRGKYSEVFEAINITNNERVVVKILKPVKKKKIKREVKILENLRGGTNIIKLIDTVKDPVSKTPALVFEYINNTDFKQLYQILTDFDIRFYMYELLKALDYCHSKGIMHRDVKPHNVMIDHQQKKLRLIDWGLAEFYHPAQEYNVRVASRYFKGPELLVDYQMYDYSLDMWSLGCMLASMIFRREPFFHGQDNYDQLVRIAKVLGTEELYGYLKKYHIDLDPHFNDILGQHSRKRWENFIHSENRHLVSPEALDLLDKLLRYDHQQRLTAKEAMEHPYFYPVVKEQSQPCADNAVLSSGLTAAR
Insulin-like growth factor 1 receptor, sequence (P08069 31-736 limits assumed): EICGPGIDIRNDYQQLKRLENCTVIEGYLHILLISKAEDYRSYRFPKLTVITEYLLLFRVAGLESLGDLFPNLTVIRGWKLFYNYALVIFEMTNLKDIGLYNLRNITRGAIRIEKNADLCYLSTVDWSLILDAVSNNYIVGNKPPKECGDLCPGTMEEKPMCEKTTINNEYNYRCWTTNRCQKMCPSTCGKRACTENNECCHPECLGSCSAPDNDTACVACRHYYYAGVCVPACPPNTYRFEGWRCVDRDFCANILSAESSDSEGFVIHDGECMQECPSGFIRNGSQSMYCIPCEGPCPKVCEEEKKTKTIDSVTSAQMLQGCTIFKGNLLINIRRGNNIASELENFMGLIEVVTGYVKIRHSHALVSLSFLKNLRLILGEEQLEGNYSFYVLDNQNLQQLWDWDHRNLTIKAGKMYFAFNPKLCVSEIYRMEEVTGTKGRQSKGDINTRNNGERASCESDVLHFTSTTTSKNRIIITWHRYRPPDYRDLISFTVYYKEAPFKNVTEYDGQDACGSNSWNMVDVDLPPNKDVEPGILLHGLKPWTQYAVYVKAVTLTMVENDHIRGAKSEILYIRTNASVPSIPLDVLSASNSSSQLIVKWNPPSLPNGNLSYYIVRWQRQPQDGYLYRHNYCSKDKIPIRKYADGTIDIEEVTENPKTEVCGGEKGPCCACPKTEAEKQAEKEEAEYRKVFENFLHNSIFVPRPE
Insulin-like growth factor 1 receptor, sequence (P08069 741-1367 limits assumed): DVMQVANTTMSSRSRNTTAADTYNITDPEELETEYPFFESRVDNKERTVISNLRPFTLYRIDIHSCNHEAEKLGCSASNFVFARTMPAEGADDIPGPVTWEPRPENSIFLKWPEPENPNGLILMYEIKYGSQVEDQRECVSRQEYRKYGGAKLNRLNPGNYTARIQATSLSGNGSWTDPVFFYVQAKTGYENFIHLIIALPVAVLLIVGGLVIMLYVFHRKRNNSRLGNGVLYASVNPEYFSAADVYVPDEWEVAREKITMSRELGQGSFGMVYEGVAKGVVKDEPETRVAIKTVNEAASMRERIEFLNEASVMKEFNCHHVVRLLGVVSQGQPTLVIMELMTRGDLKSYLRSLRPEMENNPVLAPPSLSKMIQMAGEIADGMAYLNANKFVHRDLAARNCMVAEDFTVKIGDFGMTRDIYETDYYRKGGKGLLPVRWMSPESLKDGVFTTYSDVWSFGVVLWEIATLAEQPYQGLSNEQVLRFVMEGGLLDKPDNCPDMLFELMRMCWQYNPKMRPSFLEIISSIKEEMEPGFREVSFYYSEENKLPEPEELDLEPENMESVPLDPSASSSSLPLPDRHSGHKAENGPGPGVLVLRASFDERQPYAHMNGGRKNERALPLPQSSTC

SMILES | Kd [1] | Kd [2] | Kd [3] | Kd [4] | Kd [5] | Kd [6] | Kd [7] | Kd (Heme oxygenase 2) | pKd (Heme oxygenase 2)
O=C1NC(=O)[C@@H](c2cn3c4c(cccc24)CCC3)[C@@H]1c1c[nH]c2ccccc12 [TIVANTINIB] | > 30 µM (inactive) | > 30 µM (inactive) | > 30 µM (inactive) | > 30 µM (inactive) | > 30 µM (inactive) | > 30 µM (inactive) | > 30 µM (inactive) | – | 6.92
C[C@@H](NC(=O)c1ncnc(N)c1Cl)c1ncc(C(=O)Nc2cc(C(F)(F)F)c(Cl)cn2)s1 [TOVORAFENIB] | 0.942 µM (active) | > 30 µM (inactive) | > 30 µM (inactive) | > 30 µM (inactive) | > 30 µM (inactive) | > 30 µM (inactive) | > 30 µM (inactive) | > 30 µM (inactive) | –
CN1C/C=C/CCOc2cccc(c2)-c2ccnc(n2)Nc2cccc(c2)C1 [ZOTIRACICLIB] | > 30 µM (inactive) | > 30 µM (inactive) | > 30 µM (inactive) | > 30 µM (inactive) | > 30 µM (inactive) | 2.3 µM (active) | > 30 µM (inactive) | > 30 µM (inactive) | –

Results, then the compound that gave them:

Kd [1] | Kd [2] | Kd [3] | Kd [4] | Kd [5] | Kd [6] | Kd [7] | Kd (Heme oxygenase 2) | pKd (Heme oxygenase 2) | SMILES
> 30 µM (inactive) | > 30 µM (inactive) | > 30 µM (inactive) | > 30 µM (inactive) | > 30 µM (inactive) | > 30 µM (inactive) | > 30 µM (inactive) | > 30 µM (inactive) | – | O=C(Cc1ccc(-c2ccc(OCCN3CCOCC3)cc2)cn1)NCc1ccccc1 [TIRBANIBULIN]
0.018 µM (active) | > 30 µM (inactive) | > 30 µM (inactive) | > 30 µM (inactive) | > 30 µM (inactive) | 2.74 µM (active) | > 30 µM (inactive) | > 30 µM (inactive) | – | C[C@@H](N)c1ccc(C(=O)Nc2ccnc3[nH]ccc23)cc1 [Y-39983]
